Patent publication EP1431306A1, “A mechanism for hiv-1 entry into host cells and peptides inhibiting this mechanism” (priority 2002, dated 2004)

Key:
[1] = system: HIV-1 Ba-L; experiment: Infection of PHA-stimulated PBMCs with wild type HIV-1 Ba-L (early viral transcripts by PCR); format: cell-based; settings: 2 h at 37 °C, compared to 100 µM control peptide, SEQ ID NO.4 and 44: 100-50-10 µM, SEQ ID NO. 127: 1 µM-100-10 nM
Procedure: This example is illustrated in Fig. 12. […] 4 (CSFINT), 44 (RDKVKK) and the complete gp120 region SEQ ID NO.127 (CSFNITTEIRDKVKK), where the entry experiment is performed with two strains of HIV-1 on peripheral blood cells (PBMCs) derived from healthy donors. In particular, strain III B uses CXCR4 as a co-receptor (X4) and Ba-L uses CCR5 (R5).
In the graphs the percent inhibition of infection due to the peptides is shown, as compared to infection in the presence of 100 µM of a control peptide. PHA-stimulated PBMCs have been incubated with the peptides and immediately infected for 2 h at 37 °C. This incubation time is sufficient to evaluate virus entry, by detecting the presence of early viral transcripts into the cytoplasm of infected cells. The peptide concentrations are as follows: SEQ ID NO.4 and 44: 100-50-10 µM; SEQ ID NO. 127: 1 µM-100-10 nM. In Fig. 12A is represented the effect of the peptides on the basal infection of both viral strains, in Fig. 12B the effect of the peptides on the infection following incubation with rTAT 7 nM. A peptide-dependent inhibition of the basal infection by both HIV-1 strains is present already in the basal infection, reflecting the presence of TAT in the viral supernatants. […]
Infection with wild type HIV-1. […] Amplified DNA was analyzed by Southern blot hybridization with a ^32P-labeled probe, and quantified by densitometry. […]

[2] = system: TAT+/gp120-LV; experiment: Entry of TAT+/gp120-LV into C8166 cells after co-culture with U937/PINCO or U937/TAT cells; format: cell-based, HIV-1
From the text: This example is illustrated in Fig. 10. […] Said vector, as described in Example II, allows the expression of TAT, so that TAT is already present, as detailed described before, in the vector preparation and its amount is enhanced after the co-culture with U937/TAT cells. […] In particular, peptides with SEQ ID NO. 40 (RDKKKK), 42 (RDKKKV), 45 (KDKKEK), 47 (RDKKQK), 49 (RDKQQK), 50 (RDKVQK) revert the entry of more than 15%.
This example is illustrated in Fig. 11. […] 4 (CSFINT) and 44 (RDKVKK), where the entry experiment is performed with TAT+/gp120-LV, following 4 h co-culture of C8166 cells with U937/TAT cells. These two peptides are the ones derived from the Phage Display screening, and is here evaluated their ability of inhibit vector entry at concentrations lower than 100 µM (the concentration used in all the examples previously described). To verify if the integrity of the peptides is crucial for their activity, we have incubated the cells with said peptides in the presence of different protease inhibitors (aprotinin or a mix made by aprotinin, leupeptin, bestatin, pepstatin-A, AEBSF [4-(2-Aminoethyl) Benzenesulfonyl Fluoride Hydrochloride] and E-64 [(N-(N-(L-3-Transcarboxirane-2-Carbonyl)-L-Leucyl)-Agmatine)]). […] This example illustrates a way by which the power of said peptides can be improved.
Co-cultures and incubations with rTAT. […]
Transduction with HIV-1-derived lentivirus. Vector stocks were prepared by transient co-transfection of 293T cells with the following combinations of plasmids: pRRL.hPGK.GFP.SIN-18 + pCMV.DR8.2 + pMD.G (Naldini et al. (1996), supra) (VSV-G-LV) or pEnvHXB (Huang et al., J. Virol. 72 (1998), 8952-8960) (TAT+/gp120-LV); pRRL.hPGK.GFP.SIN-18 + pCMV.DR8.74 + pRSV-Rev ((Dull et al. (1998), supra) + pEnvHXB (TAT^-/gp120-LV). Vector concentration was determined by HIV-1 p24 Core profile ELISA following the manufacturer's instructions. The entry experiments were conducted on 10^5 cells per well of a 48-well plate in the presence of 8 µg/ml polybrene. The number of GFP-positive cells was analysed by FACS.

| Substance | inhibition of the basal infection [1] [%] | blocking of virus entry (TAT+/gp120-LV) ([2]; concentration lower than 100 µM, no protease inhibitors, 4 h co-culture with U937/TAT cells) | concentration at which the inhibitory effect is still visible ([2]; in the presence of protease inhibitors (aprotinin or mix), 4 h co-culture with U937/TAT cells) [µM] | reversion of TAT+/gp120-LV entry ([2]; 100 µM of the peptides, 4 h co-culture of C8166 cells with U937/PINCO or U937/TAT cells (effect potentiated by co-culture with U937/TAT)) |
| --- | --- | --- | --- | --- |
| CSFINT [SEQ ID NO. 4] | ~70 | inefficient in blocking virus entry | 5 |  |
| RDKKQQ [SEQ ID NO. 47] |  |  |  | more than 15% |
